Experimental data from US12077503B2, “Substituted cyclic amides and their use as herbicides” (FMC CORPORATION, priority 2015, dated 2024).

What was measured:
Format in all cases: in vivo
corn (Zea mays) = assay: Test A postemergence
In short: (§1)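 Visual injury scores from 0, no effect, to 100, complete control, were assigned versus untreated controls roughly 10 d after treatment in the greenhouse. Test chemicals, formulated with surfactant in a non-phytotoxic solvent, were applied to planted seeds as a preemergence soil spray or postemergence to one- to two-leaf plants 2 to 10 cm tall, in loam–sand soil.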

Kochia (Kochia scoparia) [1] = assay: Test A postemergence
In short: as §1

[2] = system: wheat (Triticum aestivum); assay: Test A postemergence
In short: as §1

[3] = system: ragweed (common ragweed, Ambrosia elatior); assay: Test A postemergence
In short: as §1

[4] = system: giant foxtail (Setaria faberii); assay: Test A postemergence
In short: as §1

[5] = system: Galium (catchweed bedstraw, Galium aparine); assay: Test A postemergence
In short: as §1

[6] = system: blackgrass (Alopecurus myosuroides); assay: Test A postemergence
In short: as §1

[7] = system: pigweed (Amaranthus retroflexus); assay: Test A postemergence
In short: as §1

[8] = system: ryegrass, Italian (Italian ryegrass, Lolium multiflorum); assay: Test A postemergence
In short: as §1

[9] = system: barnyardgrass (Echinochloa crus-galli); assay: Test A postemergence
In short: as §1

Kochia (Kochia scoparia) [10] = assay: Test A preemergence
In short: as §1

[11] = system: ragweed (common ragweed, Ambrosia elatior); assay: Test A preemergence
In short: as §1

[12] = system: giant foxtail (Setaria faberii); assay: Test A preemergence
In short: as §1

[13] = system: pigweed (Amaranthus retroflexus); assay: Test A preemergence
[14] = system: ryegrass, Italian (Italian ryegrass, Lolium multiflorum); assay: Test A preemergence
In short: as §1

[15] = system: barnyardgrass (Echinochloa crus-galli); assay: Test A preemergence
In short: as §1

[16] = system: ducksalad (Heteranthera limosa); assay: Test B flooded paddy test; conditions: Flood, 0 to 100 scale where 0 is no effect and 100 is complete control, 13 to 15 d
In short: (§2)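 Visual ratings (0 none to 100 complete control) are relative to untreated plants, taken 13–15 d after treatment in a greenhouse. Test material went straight into floodwater standing 3 cm above the soil, kept constant, on plants at the 2-leaf stage.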

rice (Oryra sativa) = assay: Test B flooded paddy test; conditions: Flood, 0 to 100 scale where 0 is no effect and 100 is complete control, 13 to 15 d
In short: as §2

[17] = system: sedge, umbrella (small-flower umbrella sedge, Cyperus difformis); assay: Test B flooded paddy test; conditions: Flood, 0 to 100 scale where 0 is no effect and 100 is complete control, 13 to 15 d
In short: as §2

[18] = system: barnyardgrass (Echinochloa crus-galli); assay: Test B flooded paddy test; conditions: Flood, 0 to 100 scale where 0 is no effect and 100 is complete control, 13 to 15 d
In short: as §2

[19] = 125 g ai/ha, postemergence, visual injury after approximately 10 d, 0 to 100 scale (0 no effect, 100 complete control)
[20] = 500 g ai/ha, postemergence, visual injury, 0 to 100 scale (0 no effect, 100 complete control), approx. 10 d
[21] = 125 g ai/ha, preemergence, visual rating after approx. 10 d, 0 to 100 scale where 0 is no effect and 100 is complete control
[22] = 500 g ai/ha, preemergence, 0 to 100 scale, 0 = no effect, 100 = complete control
[23] = 125 g ai/ha, postemergence, visual rating after approx. 10 d, 0 to 100 scale (0 no effect, 100 complete control)
[24] = Postemergence, 500 g ai/ha, 0 to 100 scale where 0 is no effect and 100 is complete control
[25] = 125 g ai/ha, Preemergence, visual injury after approximately 10 d, 0 to 100 scale where 0 is no effect and 100 is complete control
[26] = Preemergence, 500 g ai/ha, visual injury approx. 10 d

O=C1NCC(c2ccc(I)cc2)C1C(=O)Nc1ccccc1F (racemic) [Compound 702]
40: Plant response rating, Galium [5, 20]
20: Plant response rating, Kochia (Kochia (Kochia scoparia) [10]; [21]) | Plant response rating, Kochia (Kochia (Kochia scoparia) [10]; [22]) | Plant response rating, Rice (rice (Oryra sativa); 500 g ai/ha)
70: Plant response rating, Barnyardgrass [9, 19] | Plant response rating, Barnyardgrass [9, 20] | Plant response rating, Barnyardgrass [15, 21]
50: Plant response rating, Barnyardgrass ([18]; 500 g ai/ha)
0: Plant response rating, Corn (corn (Zea mays); [19]) | Plant response rating, Corn (corn (Zea mays); [20]) | Plant response rating, Kochia (Kochia (Kochia scoparia) [1]; [19]) | Plant response rating, Kochia (Kochia (Kochia scoparia) [1]; [20]) | Plant response rating, Wheat [2, 19] | Plant response rating, Wheat [2, 20] | Plant response rating, Ragweed [3, 19] | Plant response rating, Ragweed [3, 20] | Plant response rating, Galium [5, 19] | Plant response rating, Blackgrass [6, 19] | Plant response rating, Blackgrass [6, 20] | Plant response rating, Pigweed [7, 19] | Plant response rating, Pigweed [7, 20] | Plant response rating, Ryegrass, Italian [8, 19] | Plant response rating, Ryegrass, Italian [8, 20] | Plant response rating, Ragweed [11, 21] | Plant response rating, Ragweed [11, 22] | Plant response rating, Pigweed [13, 21] | Plant response rating, Ryegrass, Italian [14, 21] | Plant response rating, Ryegrass, Italian [14, 22] | Plant response rating, Sedge, Umbrella ([17]; 500 g ai/ha)
90: Plant response rating, Foxtail, Giant [12, 21] | Plant response rating, Foxtail, Giant [12, 22] | Plant response rating, Barnyardgrass [15, 22]
30: Plant response rating, Foxtail, Giant [4, 19] | Plant response rating, Pigweed [13, 22]
100: Plant response rating, Ducksalad ([16]; 500 g ai/ha)
80: Plant response rating, Foxtail, Giant [4, 20]

O=C1NCC(c2ccsc2Cl)C1C(=O)Nc1ccccc1F (stereo not drawn) [Compound 599]
20: Plant response rating, Barnyardgrass [9, 24]
30: Barnyardgrass plant response rating (0 to 100 scale, 0 is no effect, 100 is complete control) [15, 26]
50: Plant response rating, Ducksalad ([16]; 250 g ai/ha)
0: Plant response rating, Corn (corn (Zea mays); [23]) | Plant response rating, Corn (corn (Zea mays); [24]) | Plant response rating, Kochia (Kochia (Kochia scoparia) [1]; [23]) | Plant response rating, Kochia (Kochia (Kochia scoparia) [1]; [24]) | Plant response rating, Wheat [2, 23] | Plant response rating, Wheat [2, 24] | Plant response rating, Ragweed [3, 23] | Plant response rating, Ragweed [3, 24] | Plant response rating, Foxtail, Giant [4, 23] | Plant response rating, Foxtail, Giant [4, 24] | Plant response rating, Galium [5, 23] | Plant response rating, Galium [5, 24] | Plant response rating, Blackgrass [6, 23] | Plant response rating, Blackgrass [6, 24] | Plant response rating, Pigweed [7, 23] | Plant response rating, Pigweed [7, 24] | Plant response rating, Ryegrass, Italian [8, 23] | Plant response rating, Ryegrass, Italian [8, 24] | Plant response rating, Barnyardgrass [9, 23] | Plant response rating, Kochia (Kochia (Kochia scoparia) [10]; [25]) | Kochia plant response rating (0 to 100 scale, 0 is no effect, 100 is complete control) (Kochia (Kochia scoparia) [10]; [26]) | Plant response rating, Ragweed [11, 25] | Ragweed plant response rating (0 to 100 scale, 0 is no effect, 100 is complete control) [11, 26] | Plant response rating, Foxtail, Giant [12, 25] | Foxtail, Giant plant response rating (0 to 100 scale, 0 is no effect, 100 is complete control) [12, 26] | Plant response rating, Pigweed [13, 25] | Pigweed plant response rating (0 to 100 scale, 0 is no effect, 100 is complete control) [13, 26] | Plant response rating, Ryegrass, Italian [14, 25] | Ryegrass, Italian plant response rating (0 to 100 scale, 0 is no effect, 100 is complete control) [14, 26] | Plant response rating, Barnyardgrass [15, 25] | Plant response rating, Rice (rice (Oryra sativa); 250 g ai/ha) | Plant response rating, Sedge, Umbrella ([17]; 250 g ai/ha) | Plant response rating, Barnyardgrass ([18]; 250 g ai/ha)
